In ChEMBL document CHEMBL5465560, “Selectivity Literature for EUbOPEN Chemogenomic Library” (2024):
Each block holds one compound with its values, some of them ahead of it.

Columns and labels:
[1] = target: T1, TGF-beta receptor type-1 (Homo sapiens) (UniProt P36897); test: Selectivity interaction (LanthaScreen Eu Kinase Binding Assay) EUB0001632a TGFBR1; conditions: at 10 µM
T1 sequence (whole entry): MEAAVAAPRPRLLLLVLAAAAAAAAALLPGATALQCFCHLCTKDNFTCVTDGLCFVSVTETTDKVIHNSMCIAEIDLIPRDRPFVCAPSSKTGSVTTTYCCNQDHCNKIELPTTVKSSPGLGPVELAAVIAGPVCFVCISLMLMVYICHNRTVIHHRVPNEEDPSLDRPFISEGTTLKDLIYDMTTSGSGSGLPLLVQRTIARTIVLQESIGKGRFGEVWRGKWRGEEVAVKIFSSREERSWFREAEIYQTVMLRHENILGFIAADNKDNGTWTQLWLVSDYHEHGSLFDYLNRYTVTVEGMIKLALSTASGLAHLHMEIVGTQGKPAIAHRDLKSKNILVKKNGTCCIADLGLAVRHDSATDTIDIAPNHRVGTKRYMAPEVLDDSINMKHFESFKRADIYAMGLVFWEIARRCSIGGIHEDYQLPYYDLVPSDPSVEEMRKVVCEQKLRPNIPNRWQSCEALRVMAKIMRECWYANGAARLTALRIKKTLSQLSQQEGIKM

[2] = target: T2, Serine/threonine-protein kinase LATS2 (Homo sapiens) (UniProt Q9NRM7); test: Selectivity interaction (KinomeScan (DiscoverX)) EUB0000695a LATS2; conditions: at 100 nM
T2 sequence (whole entry): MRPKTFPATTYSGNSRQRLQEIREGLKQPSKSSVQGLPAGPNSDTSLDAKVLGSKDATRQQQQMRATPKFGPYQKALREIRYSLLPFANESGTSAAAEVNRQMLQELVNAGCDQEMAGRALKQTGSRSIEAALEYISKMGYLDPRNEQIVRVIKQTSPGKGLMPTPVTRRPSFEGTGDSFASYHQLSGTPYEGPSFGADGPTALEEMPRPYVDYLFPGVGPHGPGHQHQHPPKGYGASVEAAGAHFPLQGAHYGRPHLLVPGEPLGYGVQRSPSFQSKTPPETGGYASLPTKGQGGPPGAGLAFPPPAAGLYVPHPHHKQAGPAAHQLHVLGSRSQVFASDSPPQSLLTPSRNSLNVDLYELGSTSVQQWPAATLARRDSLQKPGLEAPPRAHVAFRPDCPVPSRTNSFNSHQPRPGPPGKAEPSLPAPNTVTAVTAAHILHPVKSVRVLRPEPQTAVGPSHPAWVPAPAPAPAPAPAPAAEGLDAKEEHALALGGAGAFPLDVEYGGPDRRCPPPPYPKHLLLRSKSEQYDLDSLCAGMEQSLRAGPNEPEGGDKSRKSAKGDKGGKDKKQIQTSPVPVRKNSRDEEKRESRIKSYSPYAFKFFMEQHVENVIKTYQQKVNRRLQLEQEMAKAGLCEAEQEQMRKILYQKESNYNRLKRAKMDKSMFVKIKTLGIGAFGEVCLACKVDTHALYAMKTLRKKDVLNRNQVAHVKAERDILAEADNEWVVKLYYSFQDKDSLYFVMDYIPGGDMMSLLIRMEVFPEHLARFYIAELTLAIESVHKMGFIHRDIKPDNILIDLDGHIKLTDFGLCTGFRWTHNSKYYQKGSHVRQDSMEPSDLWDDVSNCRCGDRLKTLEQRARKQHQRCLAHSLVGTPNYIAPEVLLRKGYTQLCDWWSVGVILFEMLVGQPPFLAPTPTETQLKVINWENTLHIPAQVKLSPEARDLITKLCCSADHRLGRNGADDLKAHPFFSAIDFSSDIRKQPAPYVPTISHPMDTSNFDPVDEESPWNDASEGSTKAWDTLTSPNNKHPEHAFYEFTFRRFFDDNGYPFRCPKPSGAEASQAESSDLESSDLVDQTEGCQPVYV

[3] = target: Protein-tyrosine kinase 2-beta (Homo sapiens) (UniProt Q14289); conditions: at 10 µM
[4] = target: T3, Serine/threonine-protein kinase D2 (Homo sapiens) (UniProt Q9BZL6); test: Selectivity interaction (Upstate Kinase Profiler service (Millipore)) EUB0000056c PRKD2; conditions: at 1 µM
T3 sequence (whole entry): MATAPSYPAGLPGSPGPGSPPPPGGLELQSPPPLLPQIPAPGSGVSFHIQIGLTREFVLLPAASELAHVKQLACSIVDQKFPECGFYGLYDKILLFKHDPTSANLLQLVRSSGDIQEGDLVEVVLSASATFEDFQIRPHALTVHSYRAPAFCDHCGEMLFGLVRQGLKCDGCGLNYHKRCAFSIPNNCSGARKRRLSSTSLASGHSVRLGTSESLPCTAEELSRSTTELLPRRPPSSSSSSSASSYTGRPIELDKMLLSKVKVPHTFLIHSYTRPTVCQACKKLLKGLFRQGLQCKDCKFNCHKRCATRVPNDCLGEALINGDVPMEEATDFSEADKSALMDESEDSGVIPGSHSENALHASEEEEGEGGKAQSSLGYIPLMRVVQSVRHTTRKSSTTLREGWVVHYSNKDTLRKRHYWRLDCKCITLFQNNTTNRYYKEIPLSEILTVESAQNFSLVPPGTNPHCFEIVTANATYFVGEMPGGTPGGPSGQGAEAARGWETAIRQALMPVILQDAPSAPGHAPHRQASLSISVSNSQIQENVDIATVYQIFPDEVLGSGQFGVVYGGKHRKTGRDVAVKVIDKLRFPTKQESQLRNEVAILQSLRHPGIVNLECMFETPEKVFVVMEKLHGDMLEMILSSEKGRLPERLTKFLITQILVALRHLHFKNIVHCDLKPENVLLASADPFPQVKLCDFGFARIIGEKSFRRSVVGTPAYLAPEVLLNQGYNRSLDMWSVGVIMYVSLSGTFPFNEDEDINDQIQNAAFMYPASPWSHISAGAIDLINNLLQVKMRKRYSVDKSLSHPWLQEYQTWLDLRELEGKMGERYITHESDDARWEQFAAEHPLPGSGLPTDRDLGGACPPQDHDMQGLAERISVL

[5] = target: Platelet-derived growth factor receptor beta (Homo sapiens, UniProt P09619); test: Selectivity interaction (KinomeScan (DiscoverX)) EUB0000666a PDGFRB; conditions: at 10 µM
Platelet-derived growth factor receptor beta, sequence (P09619 whole entry): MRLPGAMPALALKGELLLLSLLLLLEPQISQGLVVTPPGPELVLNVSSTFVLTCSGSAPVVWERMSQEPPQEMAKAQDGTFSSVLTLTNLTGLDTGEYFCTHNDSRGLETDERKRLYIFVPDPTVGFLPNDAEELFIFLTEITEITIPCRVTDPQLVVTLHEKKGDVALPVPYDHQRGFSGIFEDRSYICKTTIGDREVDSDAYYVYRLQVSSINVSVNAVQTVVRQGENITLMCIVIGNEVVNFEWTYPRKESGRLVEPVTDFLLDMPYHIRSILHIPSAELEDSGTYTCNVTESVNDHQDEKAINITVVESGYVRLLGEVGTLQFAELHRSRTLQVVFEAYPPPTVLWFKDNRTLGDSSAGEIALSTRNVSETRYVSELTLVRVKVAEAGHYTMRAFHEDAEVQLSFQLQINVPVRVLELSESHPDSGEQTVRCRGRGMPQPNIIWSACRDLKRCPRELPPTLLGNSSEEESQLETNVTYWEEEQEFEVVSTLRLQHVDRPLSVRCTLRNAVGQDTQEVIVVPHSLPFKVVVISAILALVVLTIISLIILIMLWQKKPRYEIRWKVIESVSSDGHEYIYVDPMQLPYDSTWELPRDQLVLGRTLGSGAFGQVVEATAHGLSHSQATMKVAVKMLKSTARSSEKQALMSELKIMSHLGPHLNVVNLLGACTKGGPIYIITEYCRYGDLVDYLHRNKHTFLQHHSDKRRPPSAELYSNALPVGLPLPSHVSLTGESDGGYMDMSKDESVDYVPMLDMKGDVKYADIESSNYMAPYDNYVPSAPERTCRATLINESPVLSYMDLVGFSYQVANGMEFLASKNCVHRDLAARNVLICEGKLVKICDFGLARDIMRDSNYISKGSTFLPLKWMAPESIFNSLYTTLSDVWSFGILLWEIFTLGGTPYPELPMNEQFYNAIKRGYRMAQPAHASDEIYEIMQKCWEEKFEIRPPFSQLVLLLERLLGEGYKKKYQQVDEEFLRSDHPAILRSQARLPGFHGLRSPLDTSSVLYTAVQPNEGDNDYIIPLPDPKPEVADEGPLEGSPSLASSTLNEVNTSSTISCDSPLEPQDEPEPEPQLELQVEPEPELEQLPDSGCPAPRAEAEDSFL

Protein-tyrosine kinase 2-beta (Homo sapiens), sequence (Q14289 whole entry, looked up): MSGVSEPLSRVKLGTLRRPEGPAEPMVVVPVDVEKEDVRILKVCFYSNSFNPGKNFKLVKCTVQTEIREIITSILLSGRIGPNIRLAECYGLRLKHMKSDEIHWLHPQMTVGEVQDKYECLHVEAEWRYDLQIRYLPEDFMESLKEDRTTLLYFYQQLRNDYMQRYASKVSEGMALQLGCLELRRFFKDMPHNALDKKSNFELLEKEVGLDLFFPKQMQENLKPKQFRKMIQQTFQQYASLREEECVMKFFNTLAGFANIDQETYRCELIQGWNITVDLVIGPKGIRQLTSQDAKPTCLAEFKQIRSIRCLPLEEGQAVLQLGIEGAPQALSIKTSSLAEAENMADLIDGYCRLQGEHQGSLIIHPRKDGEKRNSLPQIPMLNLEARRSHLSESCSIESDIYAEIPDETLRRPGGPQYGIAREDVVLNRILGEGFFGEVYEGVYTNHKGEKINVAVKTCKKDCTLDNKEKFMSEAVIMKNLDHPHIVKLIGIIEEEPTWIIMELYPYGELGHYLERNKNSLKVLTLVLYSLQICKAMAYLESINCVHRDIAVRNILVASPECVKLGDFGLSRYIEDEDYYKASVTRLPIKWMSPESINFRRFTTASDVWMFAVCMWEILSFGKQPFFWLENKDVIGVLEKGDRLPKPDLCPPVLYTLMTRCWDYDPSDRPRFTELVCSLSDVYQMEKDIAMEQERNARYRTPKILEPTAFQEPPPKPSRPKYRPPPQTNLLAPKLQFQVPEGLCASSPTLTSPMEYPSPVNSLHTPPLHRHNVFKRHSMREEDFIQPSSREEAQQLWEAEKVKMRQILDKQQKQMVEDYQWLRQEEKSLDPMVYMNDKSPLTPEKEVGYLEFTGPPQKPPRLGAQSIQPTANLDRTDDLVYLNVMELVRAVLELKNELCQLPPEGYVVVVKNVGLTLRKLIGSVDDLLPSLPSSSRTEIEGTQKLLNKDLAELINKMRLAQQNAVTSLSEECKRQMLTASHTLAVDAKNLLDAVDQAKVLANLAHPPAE

% of inhibition [1]: 0.691%
SMILES: Cn1cc(-n2cnc3c(NCc4nc5cc(Cl)c(Cl)cc5[nH]4)nc(N4CCOCC4)nc32)cn1

SMILES: Cc1cc(F)c(C(=O)Nc2cccc(-c3nncn3C(C)C)n2)cc1-n1cnc(C2CC2)c1
% of control [2]: 89%

% of control [3]: 100%
SMILES: CCN(CC)CCCCNc1ncc2cc(-c3cc(OC)cc(OC)c3)c(NC(=O)NC(C)(C)C)nc2n1

% of inhibition [4]: -9%
SMILES: Cc1ccc(-c2ccc3c(ccc4sc5c(c43)NC[C@@H](C)NC5=O)n2)cn1

SMILES: O=C(NOC[C@H](O)CO)c1ccc(F)c(F)c1Nc1ccc(I)cc1F
% of control [5]: 66%
